One block for each substance: values may come before it.
What was measured:
CK2 holoenzyme = assay: Effect of CFTR peptides on substrate phosphorylation by CK2 holoenzyme; type: biochemical, human
CK2α catalytic subunit [1] = assay: Effect of CFTR peptides on substrate phosphorylation by CK2α catalytic subunit; type: biochemical, human; conditions: below 400 μM, murine NBD1, Figure 3A
CK2α catalytic subunit [2] = conditions: β interaction with CK2α; cited from earlier work

inhibition of holoenzyme-mediated NBD1 phosphorylation (CK2 holoenzyme; peptide concentration up to 800 μM, Figure 3B): no inhibition
Substance: GTIKENIIGVSYDEYRYR [CFTR 500−518 ΔF508]

stimulation of I-2 and HSP90 phosphorylation by CK2 holoenzyme (CK2 holoenzyme; peptides 80 μM, I-2 2.5 μM, HSP90 0.5 μM, Figure 5A): no stimulation
Substance: GTIKENIIFGVSYDEYRYR [CFTR 500−518 wild type]
effect on NBD1 phosphorylation by CK2α at lower peptide concentrations (CK2α catalytic subunit [1]): slight stimulatory effect

Substance: Δ wt: CK2 β-subunit; its interaction values with CK2α were from ref 29
ka (M^−1 s^−1) × 10^3 (CK2α catalytic subunit [2]): 22.7 M^−1 s^−1 × 10^3
kd (s^−1) × 10^−3 (CK2α catalytic subunit [2]): 0.93 s^−1 × 10^−3

Source: publication PMC2774623 (Biochemistry, 2008)
